From patent US10669271B2, “Heterocyclic compounds as immunomodulators” (Incyte Corporation, priority 2018, dated 2020)
pEC50, pIC50: −log10 of the molar value.

Legend:
[1] = target: PD-1/PD-L1 (Homo sapiens (Human), UniProt Q9NZQ7); assay: Homogeneous Time-Resolved Fluorescence (HTRF) PD-1/PD-L1 binding assay; conditions: recombinant human PD-1 and PD-L1, 25° C., pH 7.4
Protocol: Example A. Homogeneous Time-Resolved Fluorescence (HTRF) PD-1/PD-L1 Binding Assay
The assays were conducted in a standard black 384-well polystyrene plate with a final volume of 20 μL. Inhibitors were first serially diluted in DMSO and then added to the plate wells before the addition of other reaction components. The final concentration of DMSO in the assay was 1%. The assays were carried out at 25° C. in the PBS buffer (pH 7.4) with 0.05% Tween-20 and 0.1% BSA. Recombinant human PD-L1 protein (19-238) with a His-tag at the C-terminus was purchased from AcroBiosystems (PD1-H5229). Recombinant human PD-1 protein (25-167) with Fc tag at the C-terminus was also purchased from AcroBiosystems (PD1-H5257). PD-L1 and PD-1 proteins were diluted in the assay buffer and 10 μL was added to the plate well. Plates were centrifuged and proteins were preincubated with inhibitors for 40 minutes. The incubation was followed by the addition of 10 μL of HTRF detection buffer supplemented with Europium cryptate-labeled anti-human IgG (PerkinElmer-AD0212) specific for Fc and anti-His antibody conjugated to SureLight®-Allophycocyanin (APC, PerkinElmer-AD0059H). After centrifugation, the plate was incubated at 25° C. for 60 min. before reading on a PHERAstar FS plate reader (665 nm/620 nm ratio). Final concentrations in the assay were—3 nM PD1,10 nM PD-L1, 1 nM europium anti-human IgG and 20 nM anti-His-Allophycocyanin. IC50 determination was performed by fitting the curve of percent control activity versus the log of the inhibitor concentration using the GraphPad Prism 5.0 software.

[2] = system: U2OS/PD-L1 cells and Jurkat-PD-1-SHP cells; assay: Src homology region 2 domain-containing phosphatase (SHP) assay; assay type: cell-based; conditions: Homo sapiens; U2OS/PD-L1 cells with Jurkat-PD-1-SHP cells, 2 hours
Protocol: Example B. Src Homology Region 2 Domain-Containing Phosphatase (SHP) Assay
U2OS/PD-L1 cells (DiscoveRx Corporation) were maintained in McCoy's 5A medium with addition of 10% FBS, 0.25 μg/ml Puromycin. After removing the culture media, the cell medium was replaced with assay medium (RPMI1640 medium with 1% FBS). The U2OS/PD-L1 cells were then added in 384-well black clear bottom assay plate (CELLCOAT® Tissue Culture Plates, Greiner Bio-One) at 5000 cells per well in 20 μL assay medium. Test compounds were prepared by serial dilution in DMSO and 125 nL compound were first transferred to the 384 REMP plate well (Thermofisher) by ECHO liquid handler (Labcyte) followed with addition of 27.5 μL assay medium. 5 μL/well compounds in the assay medium were transferred to the cell plate with 0.05% DMSO in the final assay at 0.5 μM. Jurkat-PD-1-SHP cells (DiscoveRx Corporation) were cultured in RPMI1640 medium supplemented with 10% FBS, 250 μg/ml Hygromycin B, 500 μg/ml G418. After the replacement of culture media with assay medium, 5,000 Jurkat-PD-1-SHP cells in 20 μL were dispensed into each well. The assay plate was incubated at 37° C., 5% CO2 for 2 hours before 2.5 μL PathHunter reagent 1 (DiscoveRx Corporation) were added to each well. The assay plate was shaken for 1 min at 350 rpm in the dark followed with addition of 10 μL PathHunter reagent 2 (DiscoveRx Corporation). Chemiluminescent signal was recorded with TopCount reader (Perkin Elmer) after incubation at room temperature for 1 hour. Wells with DMSO were served as the positive controls and wells containing no cells were used as negative controls. IC50 determination was performed by fitting the curve of percentage of control activity versus the log of the compound concentration using the GraphPad Prism 6.0 software.

[3] = system: PD-L1 aAPC/CHO-K1 cells and Jurkat-PD-1-NFAT effector cells; assay: Nuclear factor of activated T-cells (NFAT) assay; assay type: cell-based; conditions: Cricetulus griseus; PD-L1 aAPC/CHO-K1 cells with Jurkat-PD-1-NFAT effector cells, 24 hours
Protocol: Example C. Nuclear Factor of Activated T-Cells (NFAT) Assay
PD-L1 aAPC/CHO-Klcells (Promega) were maintained in F-12 medium with addition of 10% FBS, 200 μg/ml Hygromycin B, 250 μg/ml Geneticin (G418). Jurkat-PD-1-NFAT effector cells (Promega) were cultured in RPMI 1640 medium supplemented with 10% FBS, 100 μg/ml Hygromycin B, 500 μg/ml G418. The culture media of PD-L1 aAPC/CHO-K1 cells were first replaced with assay medium (RPMI1640 medium with 1% FBS). The PD-L1 aAPC/CHO-K1 cells were then added in a white 384-well white clear bottom assay plate (CELLCOAT® Tissue Culture Plates, Greiner Bio-One) at 8000 per well in 10 μL assay medium. Test compounds were prepared by serial dilution in DMSO and 0.8 μL test compounds in DMSO were first transferred to the 384 REMP plate well (Thermofisher) by PlateMate Plus (Thermofisher) followed with addition of 50 μL plating medium. 5 μL compounds in the assay medium were transferred to the cells with 0.4% DMSO in the final assay at 2 μM. After removing the culture media, 10,000 Jurkat-PD-1-NFAT effector cells in 5 μL assay medium was dispensed into each well. The assay plate was incubated at 37° C., 5% CO2 for 24 hours. After the assay plate was equilibrated to room temp for 15 minutes, 20 µL/well of Bio-Glo™ reagent (Promega) were added. After 8 minutes incubation at room temperature, luminescence was read at with Pherastar microplate reader (BMG Labtech). The fold of induction (FOI) was calculated based on the ratio of luminescence normalized to the DMSO wells within each assay plate. The maximum percentage of induction was reported based on the ratio between the highest FOI of each compound and the maximum FOI of control compound within each assay plate. Wells with DMSO were served as the negative controls and wells containing control compound with the highest FOI were used as positive controls. EC50 determination was performed by fitting the curve of percent control activity versus the log of the compound concentration using the GraphPad Prism 6.0 software.

[4] = target: PD-L1 (Homo sapiens (Human), UniProt Q9NZQ7); assay: PD-L1 whole blood internalization assay; assay type: cell-based; conditions: 1 ng/ml human interferon γ, PD-L1 expression on CD14+ cells, read-out: Whole Blood (24 HR) IC50
Protocol: Example D. PD-L1 Whole Blood Internalization Assay
To determine PD-L1 internalization in human whole blood, normal human blood (Biological Specialty Corp, Colmar. Pa.) was incubated in the presence or absence of a concentration range of test compounds and 1 ng/ml human interferon γ (R&D Systems Inc. Minn. […] Blood was then stained with PD-L1 (MIH1, eBioscience; or BD Biosciences San Jose, Calif.), CD14 (Life Technologies, Carlsbad, Calif.) for 30 minutes in the dark at room temperature. Whole Blood/red cells were lysed/fixed (lysis buffer BD Biosciences) for 5 minutes at 37° C. in the dark and then centrifuged at 1600 RPM for 5 minutes. Cells were resuspended in Stain Buffer (BD Bioscience, San Jose, Calif.) and transferred into 96 well round bottom plates (Corning). Cells were gated on CD14+(BD Biosciences) and PD-L1 expression determined by mean fluorescence intensity (MFI) (BD LSRFortessa™ X-20). IC50 determination was performed by fitting the curve of compound percent inhibition versus the log of the compound concentration using the GraphPad Prism 7.0 software.

PD-1/PD-L1, sequence (Q9NZQ7 19-238): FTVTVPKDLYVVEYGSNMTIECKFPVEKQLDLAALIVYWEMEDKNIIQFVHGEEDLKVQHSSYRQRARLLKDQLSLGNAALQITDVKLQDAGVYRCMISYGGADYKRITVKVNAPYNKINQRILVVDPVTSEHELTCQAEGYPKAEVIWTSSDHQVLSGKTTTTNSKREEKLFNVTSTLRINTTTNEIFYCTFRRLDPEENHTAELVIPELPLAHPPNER
PD-L1, sequence (Q9NZQ7 19-290): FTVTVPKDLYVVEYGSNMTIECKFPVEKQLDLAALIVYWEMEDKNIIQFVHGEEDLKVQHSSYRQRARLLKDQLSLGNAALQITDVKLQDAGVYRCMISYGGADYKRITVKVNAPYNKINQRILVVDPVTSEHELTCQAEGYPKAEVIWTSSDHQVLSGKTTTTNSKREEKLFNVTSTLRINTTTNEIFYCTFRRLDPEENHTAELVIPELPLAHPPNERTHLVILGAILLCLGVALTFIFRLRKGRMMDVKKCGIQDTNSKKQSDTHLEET

SMILES	pIC50 [1]	pIC50 [2]	pEC50 [3]	pIC50 [4]
Cc1nc(Nc2cccc(-c3cccc(-c4nc5cc(CN6CCC(C(=O)O)CC6)cc(C#N)c5o4)c3C)c2C)c2ncc(CN[C@@H](C)CO)cc2n1 [Example 4, (S)-1-((7-cyano-2-(3′-(7-((1-hydroxypropan-2-ylamino)methyl)-2-methylpyrido[3,2-d]pyrimidin-4-ylamino)-2,2′-dimethylbiphenyl-3-yl)benzo[d]oxazol-5-yl)methyl)piperidine-4-carboxylic Acid]	≥ 8.00	≥ 8.00	7.00 to 8.00	7.00 to 8.00
Cc1nc(Nc2cccc(-c3cccc(-c4nc5cc(CN6CCC(C(=O)O)CC6)cc(C#N)c5o4)c3C)c2C)c2ncc(CNC[C@H](C)O)cc2n1 [Example 5, (S)-1-((7-cyano-2-(3′-(7-((2-hydroxypropylamino)methyl)-2-methylpyrido[3,2-d]pyrimidin-4-ylamino)-2,2′-dimethylbiphenyl-3-yl)benzo[d]oxazol-5-yl)methyl)piperidine-4-carboxylic Acid]	≥ 8.00	7.00 to 8.00	7.00 to 8.00	6.30 to 7.00
Cc1nc(Nc2cccc(-c3cccc(-c4nc5cc(CN6CC[C@@H](C(=O)O)C6)cc(C#N)c5o4)c3C)c2C)c2ncc(CN3CC[C@@H](O)C3)cc2n1 [Example 6, (R)-1-((7-cyano-2-(3′-(7-(((R)-3-hydroxypyrrolidin-1-yl)methyl)-2-methylpyrido[3,2-d]pyrimidin-4-ylamino)-2,2′-dimethylbiphenyl-3-yl)benzo[d]oxazol-5-yl)methyl)pyrrolidine-3-carboxylic Acid]	≥ 8.00	≥ 8.00	7.00 to 8.00	7.00 to 8.00
Cc1nc(Nc2cccc(-c3cccc(-c4nc5cc(CN6CC[C@@H](C(=O)O)C6)cc(C#N)c5o4)c3C)c2C)c2ncc(CN3CC[C@@](C)(O)C3)cc2n1 [Example 7, (R)-1-((7-cyano-2-(3′-(7-(((R)-3-hydroxy-3-methylpyrrolidin-1-yl)methyl)-2-methylpyrido[3,2-d]pyrimidin-4-ylamino)-2,2′-dimethylbiphenyl-3-yl)benzo[d]oxazol-5-yl)methyl)pyrrolidine-3-carboxylic Acid]	≥ 8.00	≥ 8.00	7.00 to 8.00	7.00 to 8.00
Cc1nc(Nc2cccc(-c3cccc(-c4nc5cc(CN6CC[C@@H](C(=O)O)C6)cc(C#N)c5o4)c3C)c2C)c2ncc(CN3CC[C@](C)(O)C3)cc2n1 [Example 8, (R)-1-((7-cyano-2-(3′-(7-(((S)-3-hydroxy-3-methylpyrrolidin-1-yl)methyl)-2-methylpyrido[3,2-d]pyrimidin-4-ylamino)-2,2′-dimethylbiphenyl-3-yl)benzo[d]oxazol-5-yl)methyl)pyrrolidine-3-carboxylic Acid]	≥ 8.00	≥ 8.00	7.00 to 8.00	7.00 to 8.00
Cc1nc(Nc2cccc(-c3cccc(-c4nc5cc(CN6CC[C@@](C)(C(=O)O)C6)cc(C#N)c5o4)c3C)c2C)c2ncc(CN3CC[C@@H](O)C3)cc2n1 [Example 11, (R)-1-((7-cyano-2-(3′-(7-(((R)-3-hydroxypyrrolidin-1-yl)methyl)-2-methylpyrido[3,2-d]pyrimidin-4-ylamino)-2,2′-dimethylbiphenyl-3-yl)benzo[d]oxazol-5-yl)methyl)-3-methylpyrrolidine-3-carboxylic Acid]	≥ 8.00	≥ 8.00	7.00 to 8.00	7.00 to 8.00
Cc1nc(Nc2cccc(-c3cccc(-c4nc5cc(CN6CC[C@@](C)(C(=O)O)C6)cc(C#N)c5o4)c3C)c2C)c2ncc(CN3CC[C@@](C)(O)C3)cc2n1 [Example 12, (R)-1-((7-cyano-2-(3′-(7-(((R)-3-hydroxy-3-methylpyrrolidin-1-yl)methyl)-2-methylpyrido[3,2-d]pyrimidin-4-ylamino)-2,2′-dimethylbiphenyl-3-yl)benzo[d]oxazol-5-yl)methyl)-3-methylpyrrolidine-3-carboxylic Acid]	≥ 8.00	≥ 8.00	7.00 to 8.00	7.00 to 8.00
Cc1nc(Nc2cccc(-c3cccc(-c4nc5cc(CN6CC[C@@](C)(C(=O)O)C6)cc(C#N)c5o4)c3C)c2C)c2ncc(CN3CC[C@](C)(O)C3)cc2n1 [Example 13, (R)-1-((7-cyano-2-(3′-(7-(((S)-3-hydroxy-3-methylpyrrolidin-1-yl)methyl)-2-methylpyrido[3,2-d]pyrimidin-4-ylamino)-2,2′-dimethylbiphenyl-3-yl)benzo[d]oxazol-5-yl)methyl)-3-methylpyrrolidine-3-carboxylic Acid]	≥ 8.00	≥ 8.00	7.00 to 8.00	7.00 to 8.00
Cc1nc(Nc2cccc(-c3cccc(-c4nc5cc(CN6CC[C@@](C)(C(=O)O)C6)cc(C#N)c5o4)c3C)c2C)c2ncc(CN[C@@H](C)CO)cc2n1 [Example 14, (R)-1-((7-cyano-2-(3′-(7-(((S)-1-hydroxypropan-2-ylamino)methyl)-2-methylpyrido[3,2-d]pyrimidin-4-ylamino)-2,2′-dimethylbiphenyl-3-yl)benzo[d]oxazol-5-yl)methyl)-3-methylpyrrolidine-3-carboxylic Acid]	≥ 8.00	≥ 8.00	7.00 to 8.00	7.00 to 8.00
